Assay results as given in the supplement of paper PMC10307832.

What was measured:
Experiment in all cases: relative viability (nuclei count vs DMSO), 5 days (fraction); higher = more cells survive
[1] = test system: NCI-H2228
Summary of the method: (§1)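 Each reported value is a median over duplicate plates. It expresses relative viability: treated-well nuclei count divided by vehicle-well nuclei count. Lung cancer cell lines in 1536-well plates were dosed by pin tool a day after seeding, alone with one drug or with a fixed anchor-drug dose plus five library-drug doses (not always all listed) in √10 steps, and nuclei were counted after 5 days.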

[2] = test system: SW 1573
Summary of the method: as §1

[3] = test system: HOP-62
Summary of the method: as §1

[4] = test system: HCC-827
Summary of the method: as §1

[5] = test system: NCI-H1437
Summary of the method: as §1

[6] = test system: LCLC-103H
Summary of the method: as §1

[7] = test system: A-427
Summary of the method: as §1

[8] = test system: NCI-H1792
Summary of the method: as §1

[9] = test system: NCI-H1395
Summary of the method: as §1

[10] = test system: NCI-H1355
Summary of the method: as §1

[11] = test system: NCI-H460
Summary of the method: as §1

[12] = test system: HARA
Summary of the method: as §1

[13] = test system: NCI-H1755
Summary of the method: as §1

[14] = test system: EMC-BAC-2
Summary of the method: as §1

[15] = test system: NCI-H522
Summary of the method: as §1

[16] = test system: COR-L 105
Summary of the method: as §1

[17] = test system: SK-LU-1
Summary of the method: as §1

[18] = test system: NCI-H23
Summary of the method: as §1

[19] = test system: NCI-H1915
Summary of the method: as §1

[20] = test system: HCC-366
Summary of the method: as §1

[21] = test system: NCI-H2009
Summary of the method: as §1

[22] = test system: NCI-H1975
Summary of the method: as §1

[23] = test system: CAL-12T
Summary of the method: as §1

COc1cc(N2CCC(C(N)=O)CC2)ccc1Nc1nc(N)c(Cl)c(Nc2ccccc2S(=O)(=O)C(C)C)n1 [HG-5-88-01] + Nc1nc2[nH]cc(CCc3ccc(C(=O)N[C@@H](CCC(=O)O)C(=O)O)cc3)c2c(=O)[nH]1 [Pemetrexed] (partner 0.2 µM)
relative viability ([1]; first compound 0.04 µM): 0.372 | relative viability ([1]; first compound 0.1265 µM): 0.237 | relative viability ([1]; first compound 0.4 µM): 0.237 | relative viability ([1]; first compound 1.265 µM): 0.26 | relative viability ([1]; first compound 4 µM): 0.183 | relative viability ([2]; first compound 0.04 µM): 0.871 | relative viability ([2]; first compound 0.1265 µM): 0.79 | relative viability ([2]; first compound 0.4 µM): 0.689 | relative viability ([2]; first compound 1.265 µM): 0.777 | relative viability ([2]; first compound 4 µM): 0.823 | relative viability ([3]; first compound 0.04 µM): 0.319 | relative viability ([3]; first compound 0.1265 µM): 0.297 | relative viability ([3]; first compound 0.4 µM): 0.288 | relative viability ([3]; first compound 1.265 µM): 0.381 | relative viability ([3]; first compound 4 µM): 0.341 | relative viability ([4]; first compound 0.04 µM): 0.24 | relative viability ([4]; first compound 0.1265 µM): 0.262 | relative viability ([4]; first compound 0.4 µM): 0.216 | relative viability ([4]; first compound 1.265 µM): 0.141 | relative viability ([4]; first compound 4 µM): 0.193 | relative viability ([5]; first compound 0.04 µM): 0.296 | relative viability ([5]; first compound 0.1265 µM): 0.334 | relative viability ([5]; first compound 0.4 µM): 0.267 | relative viability ([5]; first compound 1.265 µM): 0.327 | relative viability ([5]; first compound 4 µM): 0.277 | relative viability ([6]; first compound 0.04 µM): 0.443 | relative viability ([6]; first compound 0.1265 µM): 0.505 | relative viability ([6]; first compound 0.4 µM): 0.462 | relative viability ([6]; first compound 1.265 µM): 0.492 | relative viability ([6]; first compound 4 µM): 0.33 | relative viability ([7]; first compound 0.04 µM): 0.951 | relative viability ([7]; first compound 0.1265 µM): 1.01 | relative viability ([7]; first compound 0.4 µM): 1 | relative viability ([7]; first compound 1.265 µM): 1.02 | relative viability ([7]; first compound 4 µM): 0.9 | relative viability ([8]; first compound 0.04 µM): 0.769 | relative viability ([8]; first compound 0.1265 µM): 0.825 | relative viability ([8]; first compound 0.4 µM): 0.751 | relative viability ([8]; first compound 1.265 µM): 0.832 | relative viability ([8]; first compound 4 µM): 0.76 | relative viability ([9]; first compound 0.04 µM): 0.825 | relative viability ([9]; first compound 0.1265 µM): 0.923 | relative viability ([9]; first compound 0.4 µM): 0.751 | relative viability ([9]; first compound 1.265 µM): 1.05 | relative viability ([9]; first compound 4 µM): 0.753 | relative viability ([10]; first compound 0.04 µM): 1.11 | relative viability ([10]; first compound 0.1265 µM): 1.03 | relative viability ([10]; first compound 0.4 µM): 0.726 | relative viability ([10]; first compound 1.265 µM): 1.04 | relative viability ([10]; first compound 4 µM): 0.685 | relative viability ([11]; first compound 0.04 µM): 0.0629 | relative viability ([11]; first compound 0.1265 µM): 0.0611 | relative viability ([11]; first compound 0.4 µM): 0.054 | relative viability ([11]; first compound 1.265 µM): 0.0633 | relative viability ([11]; first compound 4 µM): 0.0701 | relative viability ([12]; first compound 0.04 µM): 0.221 | relative viability ([12]; first compound 0.1265 µM): 0.225 | relative viability ([12]; first compound 0.4 µM): 0.199 | relative viability ([12]; first compound 1.265 µM): 0.24 | relative viability ([12]; first compound 4 µM): 0.201 | relative viability ([13]; first compound 0.04 µM): 0.446 | relative viability ([13]; first compound 0.1265 µM): 0.54 | relative viability ([13]; first compound 0.4 µM): 0.407 | relative viability ([13]; first compound 1.265 µM): 0.43 | relative viability ([13]; first compound 4 µM): 0.447 | relative viability ([14]; first compound 0.04 µM): 0.416 | relative viability ([14]; first compound 0.1265 µM): 0.432 | relative viability ([14]; first compound 0.4 µM): 0.385 | relative viability ([14]; first compound 1.265 µM): 0.461 | relative viability ([14]; first compound 4 µM): 0.477 | relative viability ([15]; first compound 0.04 µM): 0.967 | relative viability ([15]; first compound 0.1265 µM): 0.969 | relative viability ([15]; first compound 0.4 µM): 1.01 | relative viability ([15]; first compound 1.265 µM): 0.841 | relative viability ([15]; first compound 4 µM): 0.783 | relative viability ([16]; first compound 0.04 µM): 1.02 | relative viability ([16]; first compound 0.1265 µM): 1.21 | relative viability ([16]; first compound 0.4 µM): 1.18 | relative viability ([16]; first compound 1.265 µM): 0.989 | relative viability ([16]; first compound 4 µM): 0.899 | relative viability ([17]; first compound 0.04 µM): 0.919 | relative viability ([17]; first compound 0.1265 µM): 0.956 | relative viability ([17]; first compound 0.4 µM): 0.925 | relative viability ([17]; first compound 1.265 µM): 1.01 | relative viability ([17]; first compound 4 µM): 0.866 | relative viability ([18]; first compound 0.04 µM): 0.678 | relative viability ([18]; first compound 0.1265 µM): 0.77 | relative viability ([18]; first compound 0.4 µM): 0.592 | relative viability ([18]; first compound 1.265 µM): 0.56 | relative viability ([18]; first compound 4 µM): 0.385 | relative viability ([19]; first compound 0.04 µM): 0.471 | relative viability ([19]; first compound 0.1265 µM): 0.5 | relative viability ([19]; first compound 0.4 µM): 0.352 | relative viability ([19]; first compound 1.265 µM): 0.541 | relative viability ([19]; first compound 4 µM): 0.441 | relative viability ([20]; first compound 0.04 µM): 0.197 | relative viability ([20]; first compound 0.1265 µM): 0.146 | relative viability ([20]; first compound 0.4 µM): 0.113 | relative viability ([20]; first compound 1.265 µM): 0.237 | relative viability ([20]; first compound 4 µM): 0.287 | relative viability ([21]; first compound 0.04 µM): 1.01 | relative viability ([21]; first compound 0.1265 µM): 1.03 | relative viability ([21]; first compound 0.4 µM): 0.959 | relative viability ([21]; first compound 1.265 µM): 0.963 | relative viability ([21]; first compound 4 µM): 0.975 | relative viability ([22]; first compound 0.04 µM): 0.27 | relative viability ([22]; first compound 0.1265 µM): 0.296 | relative viability ([22]; first compound 0.4 µM): 0.273 | relative viability ([22]; first compound 1.265 µM): 0.297 | relative viability ([22]; first compound 4 µM): 0.203 | relative viability ([23]; first compound 0.04 µM): 1.25 | relative viability ([23]; first compound 0.1265 µM): 1.14 | relative viability ([23]; first compound 0.4 µM): 1.24 | relative viability ([23]; first compound 1.265 µM): 0.995 | relative viability ([23]; first compound 4 µM): 0.754
